Assay results as given in article PMC5907308, “21st Brazilian Diabetes Society Congress” (Diabetology & Metabolic Syndrome, 2018).

Key:
[1] = test system: patients after Roux-en-Y gastric bypass; experiment: Postprandial hyperinsulinemic hypoglycemia after RYGB, case series; assay type: in vivo, human
Description: Cases report: Case (1) A person developed postprandial hypoglycemic episodes 6 years after Roux-en-Y gastric bypass (RYGB). A mixed meal tolerance test (MMTT, 500 kcal, 20% protein, 20% fat and 60% carbohydrates) was performed, leading to symptomatic postprandial hyperinsulinemic hypoglycemia (PHH) with a nadir of 45 mg/dL at 120 min (insulin of 8 mU/L; C-peptide of 3.21 ng/mL). […] Cases 2 and 3). Two […] women presented hypoglycemia following meals 3 and 5 years after RYGB. MMTT (120 min): glycemia of 34 mg/dL, insulin of 17 mU/L and C-peptide of 6.23 ng/mL and, in the second one, glycemia of 52 mg/dL, insulin of 9 mU/L and C-peptide of 2.7 ng/mL. PT and MRCP were normal in both cases. […] Case 4). A person who underwent RYGB 1.5 years ago reported hypoglycemic episodes in the last 6 months. MMTT: glycemia of 26 mg/dL at 150 min, insulin of 34 mU/L and C-peptide of 6.03 ng/mL. […] They were submitted to distal pancreatectomy and symptoms disappeared after diazoxid and hydrochlorothiazide. Case 5). A person developed hypoglycemia 10 years after RYGB. […] MMTT: glycemia of 43 mg/dL at 120 min, insulin of 100 mU/L and C-peptide of 1.95 ng/mL. […] Antiinsulin antibodies were negative in all cases (Table 1).

[2] = test system: patient with T2DM; experiment: Case report: endogenous hyperinsulinism in T2DM; assay type: in vivo, human; settings: Acarbose prescribed 2 years ago; Verapamil 80 mg/day with dietary changes
Source text: patient three diagnosed with type 2 diabetes (T2DM), using insulin for 22 years. Eight years ago, they started to present frequent episodes of symptomatic hypoglycemia, preferably in fasting periods. There was no cessation of the episodes even with the suspension of all insulin and antidiabetic drugs, which lead to an investigation with a prolonged fasting test (Table 1). The test confirmed endogenous hyperinsulinism (EH). […] They were then submitted to a selective arterial calcium stimulation test (SACST), whose results excluded insulinoma. […] Verapamil (80 mg/day) was initiated along with dietary changes, with good response.

[3] = test system: Slc2a4/GLUT4 expression in 3T3-L1 cell line adipocytes; experiment: Slc2a4/GLUT4 expression in adipocytes (Western blotting, RTqPCR); assay type: cell-based; settings: 24 h; E2 10 nM; PPT 10 nM; DPN 100 nM, in the presence or absence of E2
Description: It is known that estradiol (E2) via its receptors, ER-alpha and ER-beta, regulates the gene expression through direct binding to DNA, or through interactions with transcription factors, among them SP1 (Sp1 transcription factor). […] Thus, the role of SP1 in the expression of estradiol-mediated Slc2a4/GLUT4 in 3T3-L1 cell line adipocytes was evaluated in an attempt to understand the role of each estradiol receptors in this regulation. For this, the adipocytes were treated with 10 nM estradiol plus 0.05% DMSO (used to solubilize the ER agonists) for 24 h. Cells were also cultured with selective agonists of the different ER isoforms. To evaluate the ER-alpha, the PPT was used, in the concentration of 10 nM, with or without 10 nM of E2 (10E2 + PPT); to evaluate the ER-beta, the DPN was used in the concentration of 100 nM, with or without 10 nM of E2 (10E2 + DPN); always for 24 h. In the control group (0E2), cells were treated with only 0.05% DMSO (vehicle of agonists). The analyzes were: quantification of total GLUT4 protein, nuclear SP1 and nuclear ER-alpha/beta (Western blotting); expression of the Slc2a4 and Sp1 (RTqPCR) genes; and binding activity of the ERs to the SP1 binding site on the Slc2a4 promoter (electrophoretic mobilization, EMSA). Treatment with E2 increased the expression of Slc2a4/GLUT4. […] However, it was observed that both ERalpha and ER-beta activation increased the nuclear content of the transcription factor SP1, however, only the ER-alpha effect, especially isolated, seems to involve SP1 in the observed regulation.

[4] = test system: hypothalamus of young rats; experiment: Chronic ICV treatment with the nitric oxide donor GSNO; assay type: in vivo, rat
[5] = test system: T2DM patients; settings: monotherapy; systematic review and mixed treatment meta-analyses comparison of RCTs; cited from earlier work
Source text: Results: All DPP4 presented a statistically significant change of HbA1c from baseline compared to placebo (alogliptin − 0.797 (95%CI − 0.943 to − 0.651); linagliptin − 0.734 (CI − 0.88 to − 0.588); saxagliptin − 0.593 (CI − 0.811 to − 0.375); sitagliptin -0.788 (CI − 0.954 to − 0.622); vildagliptin −0.60 (CI − 0.80 to − 0.40)). Based on drug acquisition costs, alogliptin monotherapy presented the lowest annual treatment costs and the lowest cost for every 1% HbA1c reduction followed by saxagliptin, linagliptin, sitagliptin and vildagliptin (Table 1).

[6] = test system: patients with T1DM; experiment: High dose vitamin D for 12 weeks, DKD/albuminuria pilot study; assay type: in vivo, human
Source text: Methods: 22 patients received doses of 4000 and 10000 IU/day of cholecalciferol for 12 weeks according to patient’s previous VD levels. They were submitted to continuous glucose monitoring system (CGMS), 24-h ABPM and urine albumin-to-creatinine ratio (UACR) before and after VD supplementation.

[7] = test system: patient with T2DM; assay type: in vivo; settings: systemic treatment
Source text: After evaluation and exclusion of other diagnoses (medication use, trauma, or facial surgery) as well as exclusion of another kind of diabetic neuropathy, such as sensitive or cardiac autonomic neuropathy, the hypothesis of diabetic gustatory sweating (DGS) was established.

[8] = test system: patient with DM2 and PAH; experiment: Vildagliptin in T2DM with pulmonary arterial hypertension, case report; assay type: in vivo, human
Source text: The main etiology of pulmonary arterial hypertension (PAH) is idiopathic. In more than one-third of these cases, patients have criteria for metabolic syndrome. Alone, obesity, dyslipidemia and type 2 diabetes mellitus (T2DM) have a direct and indirect relationship in the pathophysiology of PAH. The presence of glucagon-like peptide-1 (GLP1) receptors in different organs of our body gives this incretin several pleiotropic effects, in addition to its already well established role in the treatment of obesity and T2DM. […] Considering this and using a weight-neutral incretin-based therapy, we opted for the use of a DPP4 inhibitor (vildagliptin 50 mg 2×/day) to increase GLP1 levels in a patient with DM2, hypertension, dyslipidemia, obesity grade I (BMI of 30.2 kg/m2) and PAH.

[9] = test system: participants with T2DM; experiment: Vitamin D supplementation, randomized placebo-controlled trial, oxidative stress biomarkers; assay type: in vivo, human
Description: Methods: The participants (n = 31; age 46 ± 6.45 years; sex 21/10 female/male) with T2DM were enrolled in this study in two groups. One group received one capsule/week of vitamin D (50.000 U) or placebo for 90 days. At the beginning and after intervention, laboratory analyses (biochemical and OS markers) were performed. After fasting for 12 h, the subjects underwent the following laboratory blood analysis: glucose, lipid profile, uric acid, and C-reactive protein (CRP) which were evaluated by a biochemical autoanalyzer (Dimension Dade AR; Dade Behring), insulin and vitamin D were evaluated by MEIA (AxSYM, Abbott Laboratory, Abbott Park, IL, USA). Advanced oxidation protein products (AOPP) were determined in the plasma using the semiautomated method described by Witko-Sarsat. Analysis of plasma hydroperoxide concentrations was evaluated by two methods (tertbutyl hydroperoxide-initiated chemiluminescence and FOX assay). This study was conducted according to the principles of the Helsinki, and the study protocol was approved by the ethics committee of the University (CAAE: 41718014.9.0000.5231). Kruskal- Wallis with post hoc Dunn’test was performed to verify differences across intervention (placebo or vitamin D). Graph Pad Instat 3 version was used for evaluations.

[10] = test system: patient with metastatic melanoma; experiment: Ipilimumab endocrinological side effects, case report; assay type: in vivo, human
Source text: In the last couple of years, monoclonal antibodies have emerged as effective therapies for advanced neoplasms. […] CTLA-4 is expressed on the surface of T lymphocytes and transmits an inhibitory signal through its B7-1/2 linker. In blocking the CTLA-4, Ipilimumab promotes an enhancement of T cell activation against neoplasms. During the treatment, the activation of these cells can also be directed to different organs/tissues and affect the skin (dermatitis), gastrointestinal tract (colitis, pancreatitis, hepatitis), lung (pneumonitis) and endocrine glands (thyroiditis, hypophysitis, adrenalitis). […] The patient is a person previously healthy, with a diagnosis of metastatic melanoma. They were subjected to surgical removal of the skin lesion and infraclavicular lymph node, in addition to adjuvant treatment with Ipilimumab. They performed four cycles of this medication and evolved with asthenia, headache, abdominal pain and hyperglycemia, about 3 weeks after the last cycle. They were hospitalized and during the medical investigation the following were detected: low ACTH, low cortisol and hyperprolactinemia—characterizing hypophysitis. Furthermore, there was an elevation of amylase and lipase and hyperglycemia, with levels above 400 mg/dL, requiring insulinization. […]

[11] = test system: patient with BSCL; experiment: Case report: metreleptin in Berardinelli-Seip congenital lipodystrophy; assay type: in vivo, human
Description: Case presentation: Two brothers with neonatal diagnosis of Berardinelli-Seip Congenital Lipodystrophy (BSCL), without cases of diabetes or similar diseases in their family. Clinically, both present muscular hypertrophy and acromegaloid features. […] Serum leptin 1 ng/mL (reference range: 2–18). […] Leptin 1.3 ng/mL. In 2016, HbA1C 7.8%, in use of Metformin 2 g/day, pioglitazone and vitamins E, A and D supplementation. […] By that time, Metreleptin was initiated at a 5 mg/day dose (0.07 mg/kg/day) and Metformin was maintained. After 3 months, the patient has HbA1C 5%, triglyceride level 70 mg/dL, TGO 42 U/L and TGP 32 U/L.

C[C@H]1O[C@H](O[C@H]2[C@H](O)[C@@H](O)[C@@H](O[C@H]3[C@H](O)[C@@H](O)C(O)O[C@@H]3CO)O[C@@H]2CO)[C@H](O)[C@@H](O)[C@@H]1N[C@H]1C=C(CO)[C@@H](O)[C@H](O)[C@H]1O (some centres unmarked) [Acarbose]
clinical response of postprandial hypoglycemia ([1]; Case 5): controlled their symptoms | clinical response of postprandial hypoglycemia ([1]; Cases 2 and 3): Improvement occurred | response of hypoglycemia episodes [2]: no improvement

N#CC(Cc1ccc(O)cc1)c1ccc(O)cc1 (centres unmarked) [DPN]
Slc2a4/GLUT4 expression [3]: decreased

C[C@]12CC[C@@H]3c4ccc(O)cc4CC[C@H]3[C@@H]1CC[C@@H]2O [E2, estradiol]
Slc2a4/GLUT4 expression [3]: increased

N[C@@H](CCC(=O)N[C@@H](CSN=O)C(=O)NCC(=O)O)C(=O)O [GSNO]
S-nitrosation of insulin signalling proteins in the hypothalamus [4]: enhance S-NO of IRβ and Akt | food intake and body weight [4]: increased food intake and body weight

CCCc1c(-c2ccc(O)cc2)nn(-c2ccc(O)cc2)c1-c1ccc(O)cc1 [PPT]
Slc2a4/GLUT4 expression [3]: increase

N[C@@H](CC(=O)N1CCn2c(nnc2C(F)(F)F)C1)Cc1cc(F)c(F)cc1F [Sitagliptin, sitagliptin]
change of HbA1c from baseline compared to placebo [5]: -0.788

C=C1CC[C@H](O)C/C1=C/C=C1\CCC[C@]2(C)[C@@H]([C@H](C)CCCC(C)C)CC[C@@H]12 [VD, cholecalciferol]
patients with DKD at the beginning whose DKD stage improved ([6]; 8/13 patients, 12 weeks): 62% | DKD prevalence at the end of the study ([6]; cholecalciferol 4000 or 10000 IU/day for 12 weeks, n = 22, 68% before): 32%

COc1ccc(CCN(C)CCCC(C#N)(c2ccc(OC)c(OC)c2)C(C)C)cc1OC (centres unmarked) [Verapamil]
response of hypoglycemia episodes [2]: good response

CCN(CC)CC#CCOC(=O)C(O)(c1ccccc1)C1CCCCC1 (centres unmarked) [oxybutynin]
response of gustatory sweating [7]: excellent response as early as week 1 | side effect [7]: mild side effect of xerostomia

N#C[C@@H]1CCCN1C(=O)CNC12CC3CC(CC(O)(C3)C1)C2 [vildagliptin]
right ventricular systolic pressure (RVSP) ([8]; 50 mg 2×/day, 6 months after its use, 45 mmHg before): 38 mmHg | fasting glycemia ([8]; 6 months after its use): 111 mg/dL | A1c ([8]; 6 months after its use, without episodes of hypoglycemia): 6.0% | A1c ([8]; January/2017): 6.5% | fasting glycemia ([8]; January/2017): 112 mg/dL | RVSP ([8]; January/2017, 3 years of follow up): 31 mmHg | change of HbA1c from baseline compared to placebo [5]: −0.60

C=C1CC[C@H](O)C/C1=C/C=C1\CCC[C@]2(C)[C@@H]([C@H](C)/C=C/[C@H](C)C(C)C)CC[C@@H]12 [vitamin D]
hydroperoxides levels vs placebo group ([9]; 50.000 U/week, 90 days, p = 0.008): significant reduction | FOX levels vs placebo group ([9]; 50.000 U/week, 90 days, p = 0.08): trend to decrease | AOPP vs placebo group ([9]; one capsule/week 50.000 U for 90 days, plasma, p = 0.05): significant reduction

Ipilimumab
endocrinological side effects ([10]; four cycles, adjuvant treatment, about 3 weeks after the last cycle): hypophysitis and pancreatitis, in addition to secondary diabetes | hyperglycemia, levels ([10]; requiring insulinization): above 400 mg/dL

Metreleptin: a recombinant leptin analog
HbA1C ([11]; 3 months of Metreleptin 5 mg/day with Metformin, […] before): 5% | TGO ([11]; after 3 months): 42 U/L | TGP ([11]; after 3 months): 32 U/L
